# Measurements taken from patent publication US9133204B2, “5-membered heterocyclic amides and related compounds” (H. Lundbeck A/S, priority 2007, dated 2015).
# Molecular target: T1, P2X7 receptor (Homo sapiens, UniProt Q99572)
# T1 construct: host or cells: SH-SY5Y
# T1 sequence (Q99572 1-595): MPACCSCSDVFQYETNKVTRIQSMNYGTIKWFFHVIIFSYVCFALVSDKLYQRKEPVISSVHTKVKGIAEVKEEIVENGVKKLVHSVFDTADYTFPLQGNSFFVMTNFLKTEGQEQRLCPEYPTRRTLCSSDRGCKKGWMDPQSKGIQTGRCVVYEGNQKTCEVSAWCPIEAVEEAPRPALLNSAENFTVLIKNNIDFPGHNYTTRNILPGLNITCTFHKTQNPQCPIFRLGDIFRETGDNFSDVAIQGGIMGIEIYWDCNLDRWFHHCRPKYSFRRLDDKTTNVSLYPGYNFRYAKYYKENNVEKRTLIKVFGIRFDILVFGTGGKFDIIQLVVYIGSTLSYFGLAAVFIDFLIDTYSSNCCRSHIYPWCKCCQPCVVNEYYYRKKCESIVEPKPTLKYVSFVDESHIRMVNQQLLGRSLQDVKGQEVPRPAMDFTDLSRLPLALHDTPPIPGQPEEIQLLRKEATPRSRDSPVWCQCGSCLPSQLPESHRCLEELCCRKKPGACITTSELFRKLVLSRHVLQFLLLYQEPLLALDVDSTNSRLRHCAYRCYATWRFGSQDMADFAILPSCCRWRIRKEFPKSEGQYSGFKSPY
# Experiment: High throughput P2X7 calcium mobilization assay (Example 4A)
# Format: cell-based
# Conditions: SH-SY5Y cells, 50% decrease in fluorescence response of cells exposed to 80 μM BzATP
# Experimental: A. High Throughput Assay of P2X7 Receptors
# SH-SY5Y cells, ATCC Number CRL-2266, (American Type Culture Collection, Manassas, Va.) are cultured under DMEM/High medium supplemented with 10% FBS, and 10 mM HEPES (Invitrogen Corp., Carlsbad, Calif.) in 5% CO2 and at 37° C. One day prior to the experiment, cells are plated at a density of 100,000 cells/well in a 96 well black/clear TC plate (Corning® Costar®, Sigma-Aldrich Co., St. Louis, Mo.). At the beginning of the experiment, the culture medium is removed and cells are incubated with 50 μL of 2.3 μM Fluo-4 AM dye (Invitrogen Corp.) in the assay solution (5 mM KCl, 9.6 mM NaH2PO4.H2O, 25 mM HEPES, 280 mM sucrose, 5 mM glucose, and 0.5 mM CaCl2; pH is adjusted to 7.4 with NaOH) for an hour at 37° C. After one hour dye incubation, wells are rinsed once with 50 μL assay solution, and are then incubated for an hour at room temperature with 100 μL assay solution containing the test compound. The final concentration of test compound generally ranges from 1 to 2500 nM; for positive control cells, no test compound is added. After the one hour incubation, plates are transferred to a FLIPR^TETRA instrument (Molecular Devices, Sunnyvale, Calif.) for calcium mobilization analysis.
# For determination of antagonist activity, 50 μL, of P2X7 agonist (2′(3)-O-(4-benzoyl-benzoyl)adenosine 5′-triphosephate (BzATP; Sigma-Aldrich) in the assay solution is transferred using the FLIPR into the plate, such that the final agonist concentration is 80 μM (about EC50). In negative control cells, 50 μL of assay solution without agonist is added at this stage. The peak fluorescence signal over a 2 minute period is then measured.
# First, the average maximum relative fluorescent unit (RFU) response from the negative control wells (no agonist) is subtracted from the maximum response detected for each of the other experimental wells. Second, average maximum RFU response is calculated for the positive control wells (agonist wells).
# [1] = flag after the MS data in Examples 1-2
Compound,IC50 [1] [µM],IC50 (Table I) [µM]
"Cc1nc(-c2cccnc2)sc1C(=O)NCC1(c2ccc(C(F)(F)F)cc2)CCCCC1 [Compound 32, N-({1-[4-(trifluoromethyl)phenyl]cyclohexyl}methyl)-4-methyl-2-pyridin-3-yl-1-,3-thiazole-5-carboxamide]",≤ 2,–
"Cc1ccc(C(CNC(=O)c2sc(-c3cccnc3)nc2C)CC(C)C)cc1 (stereo not drawn) [Compound 33, N-[4-methyl-2-(4-methylphenyl)pentyl}-4-methyl-2-pyridin-3-yl-1,3-thiazole-5-carboxamide]",≤ 2,–
Cc1nc(-c2cccnc2)sc1C(=O)NCC1(c2ccc(F)cc2)CCCCC1 [Compound 34],≤ 2,–
"CCCC(CNC(=O)c1sc(-c2cccnc2)nc1C)c1ccc(Cl)cc1 (stereo not drawn) [Compound 35, N-[2-(4-chlorophenyl)pentyl}-4-methyl-2-pyridin-3-yl-1,3-thiazole-5-carboxamide]",≤ 2,–
"COc1ccc(C2(CNC(=O)c3sc(-c4cccnc4)nc3C)CCCCC2)cc1 [Compound 36, N-{[1-(4-methoxyphenyl)cyclohexyl]methyl}-4-methyl-2-pyridin-3-yl-1,3-thiazole-5-carboxamide]",≤ 2,–
"Cc1nc(-c2cccnc2)sc1C(=O)NCC1(c2ccc(Cl)cc2)CCOCC1 [Compound 37, N-{[4-(4-Chlorophenyl)tetrahydro-2H-pyran-4-yl]methyl}-4-methyl-2-pyridin-3-yl-1,3-thiazole-5-carboxamide]",≤ 2,–
"Cc1ccc(C2(CNC(=O)c3sc(-c4cccnc4)nc3C)CCCCC2)cc1 [Compound 38, N-{[1-(4-methylphenyl)cyclohexyl]methyl}-4-methyl-2-pyridin-3-yl-1,3-thiazole-5-carboxamide]",≤ 2,–
"Cc1nc(-c2cccnc2)sc1C(=O)NCC1(c2ccc(Cl)c(F)c2)CCCCC1 [Compound 39, N-{[1-(4-chloro-3-fluorophenyl)cyclohexyl]methyl}-4-methyl-2-pyridin-3-yl-1-,3-thiazole-5-carboxamide]",≤ 2,–
"Cc1ccc(C2(CNC(=O)c3sc(-c4cccnc4)nc3C)CCCCC2)cn1 [Compound 40, N-{[1-(6-methylpyridin-3-yl)cyclohexyl]methyl}-4-methyl-2-pyridin-3-yl-1-,3-thiazole-5-carboxamide]",≤ 2,–
"COc1nccnc1-n1cc(C(=O)NCC23CC4CC(CC(C4)C2)C3)c(C)n1 [Compound 42, N-(adamantan-1-ylmethyl)-1-(3-methoxypyrazin-2-yl)-3-methyl-1H-pyrazole-4-carboxamide]",–,≤ 2
"Cc1nn(-c2cncc(N)n2)cc1C(=O)NCC12CC3CC(CC(C3)C1)C2 [Compound 43, N-(adamantan-1-ylmethyl)-1-(6-aminopyrazin-2-yl)-3-methyl-1H-pyrazole-4-carboxamide]",–,≤ 2
"Cc1cnc(-n2cc(C(=O)NCC34CC5CC(CC(C5)C3)C4)c(C)n2)nc1N [Compound 45, N-(adamantan-1-ylmethyl)-1-(4-amino-5-methylpyrimidin-2-yl)-3-methyl-1H-pyrazole-4-carboxamide]",–,≤ 2
"Cc1cc(C(=O)NCC23CC4CC(CC(C4)C2)C3)n(C)n1 [Compound 46, N-(adamantan-1-ylmethyl)-1,3-dimethyl-1H-pyrazole-5-carboxamide]",–,≤ 2
"COC(=O)c1cc(C(=O)NCC23CC4CC(CC(C4)C2)C3)n(C(C)C)n1 [Compound 47, methyl 5-[(adamantan-1-ylmethyl)carbamoyl]-1-isopropyl-1H-pyrazole-3-carboxylate]",–,≤ 2
"CCn1nc(C)c(Br)c1C(=O)NCC(CC(C)C)c1ccccc1 (stereo not drawn) [Compound 49, 4-bromo-1-ethyl-3-methyl-N-(4-methyl-2-phenylpentyl)-1H-pyrazole-5-carboxamide]",–,≤ 2
"CCn1nc(C)c(Br)c1C(=O)NCC(c1ccccc1)c1ccccc1 [Compound 50, 4-bromo-N-(2,2-diphenylethyl)-1-ethyl-3-methyl-1H-pyrazole-5-carboxamide]",–,≤ 2
"CC(C)n1nc(CN2CCCC(N)C2)cc1C(=O)NCC12CC3CC(CC(C3)C1)C2 (stereo not drawn) [Compound 55, N-(adamantan-1-ylmethyl)-3-[(3-aminopiperidin-1-yl)methyl]-1-isopropyl-1H-pyrazole-5-carboxamide]",–,≤ 2
"Cc1cnc(-n2cc(C(=O)NCC34CC5CC(CC(C5)C3)C4)c(C)n2)nc1NCCO [Compound 56, N-(adamantan-1-ylmethyl)-1-{4-[(2-hydroxyethyl)amino]-5-methylpyrimidin-2-yl}-3-methyl-1H-pyrazole-4-carboxamide]",–,≤ 2
"Cc1nn(-c2nccnc2N)cc1C(=O)NCC12CC3CC(CC(C3)C1)C2 [Compound 58, N-(adamantan-1-ylmethyl)-1-(3-aminopyrazin-2-yl)-3-methyl-1H-pyrazole-4-carboxamide]",–,≤ 2
"Cc1nn(-c2cccc(N)n2)cc1C(=O)NCC12CC3CC(CC(C3)C1)C2 [Compound 59, N-(adamantan-1-ylmethyl)-1-(6-aminopyridin-2-yl)-3-methyl-1H-pyrazole-4-carboxamide]",–,≤ 2
"Cc1nn(-c2cnc(N)cn2)cc1C(=O)NCC12CC3CC(CC(C3)C1)C2 [Compound 61, N-(adamantan-1-ylmethyl)-1-(5-aminopyrazin-2-yl)-3-methyl-1H-pyrazole-4-carboxamide]",–,≤ 2
"Cc1nn(C)c(C(=O)NCC23CC4CC(CC(C4)C2)C3)c1Br [Compound 62, N-(adamantan-1-ylmethyl)-4-bromo-1,3-dimethyl-1H-pyrazole-5-carboxamide]",–,≤ 2
"CCn1nc(C)c(Br)c1C(=O)NCC12CC3CC(CC(C3)C1)C2 [Compound 63, N-(adamantan-1-ylmethyl)-4-bromo-1-ethyl-3-methyl-1H-pyrazole-5-carboxamide]",–,≤ 2
"Cc1cc(-n2cc(C(=O)NCC34CC5CC(CC(C5)C3)C4)c(C)n2)nc(N)n1 [Compound 64, N-(adamantan-1-ylmethyl)-1-(2-amino-6-methylpyrimidin-4-yl)-3-methyl-1H-pyrazole-4-carboxamide]",–,≤ 2
"O=C(NCC12CC3CC(CC(C3)C1)C2)c1sc(-c2ccccc2C(F)(F)F)nc1Cl [Compound 65, N-(adamantan-1-ylmethyl)-4-chloro-2-[2-(trifluoromethyl)phenyl]-1,3-thiazole-5-carboxamide]",–,≤ 2
"O=C(NCC12CC3CC(CC(C3)C1)C2)c1cnc(-c2ccccc2C(F)(F)F)s1 [Compound 67, N-(adamantan-1-ylmethyl)-2-[2-(trifluoromethyl)phenyl]-1,3-thiazole-5-carboxamide]",–,≤ 2
"Cc1nc(Sc2nccn2C)c(C(=O)NCC23CC4CC(CC(C4)C2)C3)s1 [Compound 69, N-(adamantan-1-ylmethyl)-2-methyl-4-[(1-methyl-1H-imidazol-2-yl)thio]-1,3-thiazole-5-carboxamide]",–,≤ 2
"Cc1nc(OC2CCNCC2)sc1C(=O)NCC12CC3CC(CC(C3)C1)C2 [Compound 70, N-(adamantan-1-ylmethyl)-4-methyl-2-(piperidin-4-yloxy)-1,3-thiazole-5-carboxamide]",–,≤ 2
"Cc1nc(N2CCNCC2)sc1C(=O)NCC12CC3CC(CC(C3)C1)C2 [Compound 72, N-(adamantan-1-ylmethyl)-4-methyl-2-piperazin-1-yl-1,3-thiazole-5-carboxamide]",–,≤ 2
"Cc1ccsc1C(=O)NCC12CC3CC(CC(C3)C1)C2 [Compound 73, N-(1-adamantylmethyl)-3-methylthiophene-2-carboxamide]",–,≤ 2
